Laboratory results as given in US6638973B2, “Taxane formulations” (FSU Research Foundation, Inc., priority 2000, dated 2003).
Read-outs that look alike come from different tables or passages of the source.

System: HCT116 cells
Experiment: In vitro cytotoxicity measured by the cell colony formation assay
Format: cell-based
Conditions: colonies counted after 7 days, read-out: IN VITRO ID 50 (nm) HCT116
Outline: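 Colony-forming survival was scored 7 days after a 72 h, 37 °C compound exposure followed by washout into fresh medium.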

[1] = HCT116 colony formation, 72 h drug incubation, Example 5, C-7 ester/C-10 hydroxy taxanes
[2] = HCT116 colony formation, 72 h drug incubation, Example 10, C-10 ester/C-7 hydroxy taxanes
[3] = HCT116 cells, 72 h incubation with drug, ID50 = drug concentration producing 50% inhibition of colony formation
[4] = HCT116 colony formation, 72 h drug incubation, Example 15, C-7 substituted acetate/C-10 hydroxy taxanes

CCC(=O)O[C@H]1C[C@H]2OC[C@@]2(OC(C)=O)C2[C@H](OC(=O)c3ccccc3)[C@]3(O)C[C@H](OC(=O)[C@H](O)[C@@H](NC(=O)OC(C)(C)C)C4CCC4)C(C)=C([C@@H](O)C(=O)[C@@]21C)C3(C)C (some centres unmarked) [Compound 1447]
IC50 [1]: < 10 nM

CCCC(=O)O[C@H]1C(=O)[C@@]2(C)C([C@H](OC(=O)c3ccccc3)[C@]3(O)C[C@H](OC(=O)[C@H](O)[C@@H](NC(=O)OC(C)(C)C)c4cccs4)C(C)=C1C3(C)C)[C@]1(OC(C)=O)CO[C@@H]1C[C@@H]2O (some centres unmarked) [Compound 1003]
IC50 [2]: < 1 nM

C/C=C/C(=O)N[C@@H](c1ccco1)[C@@H](O)C(=O)O[C@H]1C[C@@]2(O)[C@@H](OC(=O)c3ccccc3)C3[C@](C)(C(=O)[C@H](OC(=O)NCC)C(=C1C)C2(C)C)[C@@H](O)C[C@H]1OC[C@@]31OC(C)=O (some centres unmarked) [Compound 6072]
IC50 (HCT116 cells, colony formation, 72 h incubation with drug, ID50 = drug concentration producing 50% inhibition of colony formation): < 1 nM

CCC(=O)O[C@H]1C[C@H]2OC[C@@]2(OC(C)=O)C2[C@H](OC(=O)c3ccccc3)[C@]3(O)C[C@H](OC(=O)[C@H](O)[C@@H](NC(=O)OC(C)(C)C)c4ccccc4)C(C)=C([C@@H](O)C(=O)[C@@]21C)C3(C)C (some centres unmarked) [Compound 1458]
IC50 [1]: < 10 nM

CCCC(=O)O[C@H]1C(=O)[C@@]2(C)C([C@H](OC(=O)c3ccccc3)[C@]3(O)C[C@H](OC(=O)[C@H](O)[C@@H](NC(=O)OC(C)(C)C)c4ccoc4)C(C)=C1C3(C)C)[C@]1(OC(C)=O)CO[C@@H]1C[C@@H]2O (some centres unmarked) [Compound 0999]
IC50 [2]: < 1 nM

CCCCC(=O)O[C@H]1C[C@H]2OC[C@@]2(OC(C)=O)C2[C@H](OC(=O)c3ccccc3)[C@]3(O)C[C@H](OC(=O)[C@H](O)[C@@H](NC(=O)OC=C(C)C)c4ccco4)C(C)=C([C@@H](O)C(=O)[C@@]21C)C3(C)C (some centres unmarked) [Compound 6141]
IC50 [1]: < 1 nM

CC(=O)O[C@@]12CO[C@@H]1C[C@H](O)[C@@]1(C)C(=O)[C@H](OC(=O)C(C)C)C3=C(C)[C@@H](OC(=O)[C@H](O)[C@@H](NC(=O)OC(C)(C)C)c4cccnc4)C[C@@](O)([C@@H](OC(=O)c4ccccc4)C12)C3(C)C (some centres unmarked) [Compound 2242]
IC50 [2]: < 10 nM

CCC(=O)O[C@H]1C(=O)[C@@]2(C)C([C@H](OC(=O)c3ccccc3)[C@]3(O)C[C@H](OC(=O)[C@H](O)[C@@H](NC(=O)OC(C)(C)C)C4CCC4)C(C)=C1C3(C)C)[C@]1(OC(C)=O)CO[C@@H]1C[C@@H]2O (some centres unmarked) [Compound 0596]
IC50 [2]: < 10 nM

CC(=O)O[C@@]12CO[C@@H]1C[C@H](O)[C@@]1(C)C(=O)[C@H](O)C3=C(C)[C@@H](OC(=O)[C@H](O)[C@@H](NC(=O)OC(C)(C)C)c4ccccc4)C[C@@](O)([C@@H](OC(=O)c4ccccc4)[C@H]21)C3(C)C [docetaxel, reference compound]
IC50 (Homo sapiens, HCT-116, HCT116 colony formation, 72 h drug incubation, Example 5, C-7 ester/C-10 hydroxy taxanes): 0.6 nM

CCOC(=O)O[C@H]1C[C@H]2OC[C@@]2(OC(C)=O)C2[C@H](OC(=O)c3ccccc3)[C@]3(O)C[C@H](OC(=O)[C@H](O)[C@H](C=C(C)C)NC(=O)OC(C)(C)C)C(C)=C([C@@H](O)C(=O)[C@@]21C)C3(C)C (some centres unmarked) [Compound 4524]
IC50 [3]: < 1 nM

CCCC(=O)O[C@H]1C[C@H]2OC[C@@]2(OC(C)=O)C2[C@H](OC(=O)c3ccccc3)[C@]3(O)C[C@H](OC(=O)[C@H](O)[C@@H](NC(=O)OCC(C)C)c4ccoc4)C(C)=C([C@@H](O)C(=O)[C@@]21C)C3(C)C (some centres unmarked) [Compound 4828]
IC50 [1]: < 10 nM

C/C=C/C(=O)N[C@@H](c1ccoc1)[C@@H](O)C(=O)O[C@H]1C[C@@]2(O)[C@@H](OC(=O)c3ccccc3)C3[C@](C)(C(=O)[C@H](OC(=O)CCC)C(=C1C)C2(C)C)[C@@H](O)C[C@H]1OC[C@@]31OC(C)=O (some centres unmarked) [Compound 4919]
IC50 [2]: < 1 nM

CC(=O)O[C@@]12CO[C@@H]1C[C@H](O)[C@@]1(C)C(=O)[C@H](OC(=O)C(C)C)C3=C(C)[C@@H](OC(=O)[C@H](O)[C@@H](NC(=O)OC(C)(C)C)c4ccc([N+](=O)[O-])cc4)C[C@@](O)([C@@H](OC(=O)c4ccccc4)C12)C3(C)C (some centres unmarked) [Compound 2320]
IC50 [2]: < 1 nM

CC(=O)O[C@@]12CO[C@@H]1C[C@H](O)[C@@]1(C)C(=O)[C@H](OC(=O)C3CC3)C3=C(C)[C@@H](OC(=O)[C@H](O)[C@@H](NC(=O)OCC(C)C)c4ccoc4)C[C@@](O)([C@@H](OC(=O)c4ccccc4)C12)C3(C)C (some centres unmarked) [Compound 4665]
IC50 [2]: < 10 nM

CCCC(=O)O[C@H]1C(=O)[C@@]2(C)C([C@H](OC(=O)c3ccccc3)[C@]3(O)C[C@H](OC(=O)[C@H](O)[C@@H](NC(=O)OCC(C)C)c4ccco4)C(C)=C1C3(C)C)[C@]1(OC(C)=O)CO[C@@H]1C[C@@H]2O (some centres unmarked) [Compound 3957]
IC50 [2]: < 10 nM

CCNC(=O)O[C@H]1C[C@H]2OC[C@@]2(OC(C)=O)C2[C@H](OC(=O)c3ccccc3)[C@]3(O)C[C@H](OC(=O)[C@H](O)[C@@H](NC(=O)C=C(C)C)c4ccco4)C(C)=C([C@@H](O)C(=O)[C@@]21C)C3(C)C (some centres unmarked) [Compound 5588]
IC50 (HCT116 cells, 72 h drug incubation, ID50 = drug concentration producing 50% inhibition of colony formation): < 1 nM

CCC(=O)O[C@H]1C(=O)[C@@]2(C)C([C@H](OC(=O)c3ccccc3)[C@]3(O)C[C@H](OC(=O)[C@H](O)[C@@H](NC(=O)OCC(C)C)C4CC4)C(C)=C1C3(C)C)[C@]1(OC(C)=O)CO[C@@H]1C[C@@H]2O (some centres unmarked) [Compound 4799]
IC50 [2]: < 1 nM

CCC(=O)O[C@H]1C[C@H]2OC[C@@]2(OC(C)=O)C2[C@H](OC(=O)c3ccccc3)[C@]3(O)C[C@H](OC(=O)[C@H](O)[C@@H](NC(=O)OCC(C)C)c4ccco4)C(C)=C([C@@H](O)C(=O)[C@@]21C)C3(C)C (some centres unmarked) [Compound 3196]
IC50 [1]: < 10 nM

CCOC(=O)O[C@H]1C[C@H]2OC[C@@]2(OC(C)=O)C2[C@H](OC(=O)c3ccccc3)[C@]3(O)C[C@H](OC(=O)[C@H](O)[C@@H](NC(=O)OC(C)(C)C)c4cccs4)C(C)=C([C@@H](O)C(=O)[C@@]21C)C3(C)C (some centres unmarked) [Compound 4234]
IC50 [3]: < 1 nM

CCC(=O)O[C@H]1C[C@H]2OC[C@@]2(OC(C)=O)C2[C@H](OC(=O)c3ccccc3)[C@]3(O)C[C@H](OC(=O)[C@H](O)[C@@H](NC(=O)OC(C)(C)C)c4nccs4)C(C)=C([C@@H](O)C(=O)[C@@]21C)C3(C)C (some centres unmarked) [Compound 6363]
IC50 [1]: < 10 nM

CCCC(=O)O[C@H]1C(=O)[C@@]2(C)C([C@H](OC(=O)c3ccccc3)[C@]3(O)C[C@H](OC(=O)[C@H](O)[C@@H](NC(=O)c4ccccc4)c4ccco4)C(C)=C1C3(C)C)[C@]1(OC(C)=O)CO[C@@H]1C[C@@H]2O (some centres unmarked) [Compound 3204]
IC50 [2]: < 1 nM

COC(=O)O[C@H]1C(=O)[C@@]2(C)C([C@H](OC(=O)c3ccccc3)[C@]3(O)C[C@H](OC(=O)[C@H](O)[C@@H](NC(=O)OC(C)(C)C)c4ccoc4)C(C)=C1C3(C)C)[C@]1(OC(C)=O)CO[C@@H]1C[C@@H]2O (some centres unmarked) [Compound 2032]
IC50 [3]: < 1 nM

CC(=O)OCC(=O)O[C@H]1C[C@H]2OC[C@@]2(OC(C)=O)C2[C@H](OC(=O)c3ccccc3)[C@]3(O)C[C@H](OC(=O)[C@H](O)[C@@H](NC(=O)OC(C)(C)C)c4ccco4)C(C)=C([C@@H](O)C(=O)[C@@]21C)C3(C)C (some centres unmarked) [Compound 5622]
IC50 [4]: < 1 nM

CC(=O)O[C@@]12CO[C@@H]1C[C@H](O)[C@@]1(C)C(=O)[C@H](OC(=O)C3CC3)C3=C(C)[C@@H](OC(=O)[C@H](O)[C@@H](NC(=O)OC(C)C)c4ccco4)C[C@@](O)([C@@H](OC(=O)c4ccccc4)C12)C3(C)C (some centres unmarked) [Compound 3853]
IC50 [2]: < 1 nM

CC=CC(=O)NC(c1ccco1)C(O)C(=O)OC1CC2(O)C(OC(=O)c3ccccc3)C3C4(OC(C)=O)COC4CC(O)C3(C)C(=O)C(OC(=O)OCC)C(=C1C)C2(C)C (centres unmarked) [Compound 4000]
IC50 [3]: < 1 nM

CCC(=O)O[C@H]1C[C@H]2OC[C@@]2(OC(C)=O)C2[C@H](OC(=O)c3ccccc3)[C@]3(O)C[C@H](OC(=O)[C@H](O)[C@@H](NC(=O)OCC(C)C)c4ccsc4)C(C)=C([C@@H](O)C(=O)[C@@]21C)C3(C)C (some centres unmarked) [Compound 4544]
IC50 [1]: < 10 nM

CCOC(=O)O[C@H]1C(=O)[C@@]2(C)C([C@H](OC(=O)c3ccccc3)[C@]3(O)C[C@H](OC(=O)[C@H](O)[C@@H](NC(=O)OC(C)(C)C)c4ccsc4)C(C)=C1C3(C)C)[C@]1(OC(C)=O)CO[C@@H]1C[C@@H]2O (some centres unmarked) [Compound 1841]
IC50 [3]: < 1 nM

CCCC(=O)O[C@H]1C(=O)[C@@]2(C)C([C@H](OC(=O)c3ccccc3)[C@]3(O)C[C@H](OC(=O)[C@H](O)[C@@H](NC(=O)C=C(C)C)c4cccs4)C(C)=C1C3(C)C)[C@]1(OC(C)=O)CO[C@@H]1C[C@@H]2O (some centres unmarked) [Compound 4344]
IC50 [2]: < 1 nM

CCCC(=O)OC1C(=O)C2(C)C(O)CC3OCC3(OC(C)=O)C2C(OC(=O)c2ccccc2)C2(O)CC(OC(=O)C(O)C(NC(=O)OC(C)(C)C)C3CC3)C(C)=C1C2(C)C (centres unmarked) [Compound 1020]
IC50 [2]: < 1 nM

CC(=O)O[C@@]12CO[C@@H]1C[C@H](O)[C@@]1(C)C(=O)[C@H](OC(=O)C3CC3)C3=C(C)[C@@H](OC(=O)[C@H](O)[C@@H](NC(=O)c4ccco4)c4cccs4)C[C@@](O)([C@@H](OC(=O)c4ccccc4)C12)C3(C)C (some centres unmarked) [Compound 3297]
IC50 [2]: < 1 nM

C/C=C/C(=O)N[C@@H](c1ccco1)[C@@H](O)C(=O)O[C@H]1C[C@@]2(O)[C@@H](OC(=O)c3ccccc3)C3[C@](C)(C(=O)[C@H](O)C(=C1C)C2(C)C)[C@@H](OC(=O)COc1ccccc1)C[C@H]1OC[C@@]31OC(C)=O (some centres unmarked) [Compound 5811]
IC50 [4]: < 1 nM

CC(=O)OC12COC1CC(O)C1(C)C(=O)C(OC(=O)c3cccs3)C3=C(C)C(OC(=O)C(O)C(NC(=O)OC(C)(C)C)C(C)C)CC(O)(C(OC(=O)c4ccccc4)C21)C3(C)C (centres unmarked) [Compound 1964]
IC50 [2]: < 10 nM
